Common to all, as to type: cell-based
For assay [1], the target named is T1, EGFR exon 21 L858R and T790M mutation (Homo sapiens, UniProt P00533, L858R/T790M).
T1 construct: expressed in transfected cells; host or cells: Ba/F3 (murine pro-B) cells, lentiviral transduction with pLVX-IRES puro
Nature of the assay: Ba/F3-EGFR L858R/T790M cell anti-proliferation assay (MTS). Particulars: Ba/F3-EGFR L858R/T790M cells, 72 h, MTS signal. An excerpt: A compound's ability in selectively inhibiting EGFR L858R and T790M concurrent mutations can be assessed using Ba/F3 cells, a murine pro-B cell line, which have been transduced with EGFR L858R and T790M double mutations. An expression vector, pLVX-IRES puro (Clontech) coding for human EGFR L858R and T790M double mutation, was transfected into HEK293 cells by the Trans-Lentiviral ORF Packaging System (Thermo Scientific), to produce virus encoding EGFR L858R and T790M double mutations. Ba/F3 (DSMZ) cells maintained in RPM11640 medium supplemented with 10% fetal bovine serum, 200 pM L-glutamine/200 μg/mL penicillin/200 μg/mL streptomycin (Life Technology) and 10 ng/mL IL-3 (R&D system), were infected by EGFR L858R and T790M double mutation virus and subsequently selected by puromycin (Life Technology) selection and IL-3 depletion. Ba/F3 cells expressing EGFR L858R and T790M double mutation (named Ba/F3-EGFR L858R/T790M) can proliferate in the absence of IL-3. The anti-proliferative activity of compounds was determined as follows: BaF3-EGFR L858R/T790M cells seeded in 96 well plates (2500 cells/well) were treated with test compound (dissolved in DMSO) at a series of concentrations (4-fold dilution, top concentration: 10,000 nM). The plates were incubated for 72 h in a 37° C. incubator with 5% CO2, and the number of viable cells in each well were measured indirectly by CellTiter 96® Aqueous One Solution Cell Proliferation Assay (Promega; this assay is a colorimetric method for determining the number of viable cells through measurement of their metabolic activity by detection of enzymatic conversion of tetrazolium salts into blue formazan derivatives). Reagent (20 pL) was added into each well, and the plates were returned to the incubator for 2 h. The absorbance in each well was then measured at 490 nm using an Envision plate reader (Perkin Elmer). IC50 values were calculated by determining the concentration of compound required to decrease the MTS signal by 50% comparing to the DMSO control in best-fit curves using Microsoft XLfit software or Accelrys Pipeline Pilot.

In assay [2] the target is T2, EGFR exon 20 ASV insertion (V769_D770insASV) (Homo sapiens, UniProt P00533, INS769ASV).
T2 construct: expressed in transfected cells; host or cells: Ba/F3 (murine pro-B) cells, lentiviral transduction with pLVX-IRES puro
T2 sequence (P00533 with tags, fused parts or gaps INS769ASV): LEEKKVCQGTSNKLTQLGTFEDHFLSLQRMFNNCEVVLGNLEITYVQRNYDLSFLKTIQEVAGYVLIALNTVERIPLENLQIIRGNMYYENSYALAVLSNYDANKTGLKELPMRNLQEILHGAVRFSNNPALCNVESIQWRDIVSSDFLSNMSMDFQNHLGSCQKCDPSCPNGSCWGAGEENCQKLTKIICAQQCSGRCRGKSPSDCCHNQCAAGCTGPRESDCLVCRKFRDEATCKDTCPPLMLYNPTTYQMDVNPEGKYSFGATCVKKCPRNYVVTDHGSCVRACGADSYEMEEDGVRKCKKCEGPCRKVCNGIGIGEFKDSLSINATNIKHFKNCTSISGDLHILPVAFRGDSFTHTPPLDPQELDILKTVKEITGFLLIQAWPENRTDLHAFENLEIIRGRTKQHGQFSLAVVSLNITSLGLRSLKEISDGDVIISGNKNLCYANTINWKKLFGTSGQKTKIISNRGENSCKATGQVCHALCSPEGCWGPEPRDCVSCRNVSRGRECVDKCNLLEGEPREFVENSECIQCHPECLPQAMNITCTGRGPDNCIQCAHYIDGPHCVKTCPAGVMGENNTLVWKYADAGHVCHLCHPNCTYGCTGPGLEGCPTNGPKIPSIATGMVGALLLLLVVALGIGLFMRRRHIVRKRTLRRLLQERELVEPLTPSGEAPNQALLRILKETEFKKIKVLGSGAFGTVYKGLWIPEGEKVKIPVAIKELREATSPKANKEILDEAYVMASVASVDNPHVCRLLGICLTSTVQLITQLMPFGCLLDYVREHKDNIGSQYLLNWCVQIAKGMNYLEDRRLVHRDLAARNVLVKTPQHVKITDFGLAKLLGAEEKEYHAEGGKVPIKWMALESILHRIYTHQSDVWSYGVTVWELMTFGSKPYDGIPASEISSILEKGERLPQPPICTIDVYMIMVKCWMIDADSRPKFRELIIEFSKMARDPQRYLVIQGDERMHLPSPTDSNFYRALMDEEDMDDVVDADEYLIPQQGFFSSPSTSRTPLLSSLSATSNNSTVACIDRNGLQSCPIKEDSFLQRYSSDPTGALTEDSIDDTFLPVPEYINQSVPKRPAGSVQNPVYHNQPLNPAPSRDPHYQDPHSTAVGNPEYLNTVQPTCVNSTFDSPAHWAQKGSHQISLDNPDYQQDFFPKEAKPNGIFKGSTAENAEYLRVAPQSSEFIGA
Nature of the assay: Ba/F3-EGFR-Exon20-ASV cell anti-proliferation assay (MTS, CellTiter 96 AQueous One). As to conditions: Ba/F3-EGFR-Exon20-ASV cells, 72 h, MTS signal. The source says:
A compound's ability in selectively inhibiting EGFR exon 20 insertion mutations can be assessed using Ba/F3 cells, a murine pro-B cell line, which have been transduced with EGFR exon 20 insertions. An expression vector, pLVX-IRES puro (Clontech) coding for human EGFR exon 20 insertions NPG (H773_V774insNPG) or ASV (V769_D770insASV), was transfected into HEK293 cells by the Trans-Lentiviral ORF Packaging System (Thermo Scientific), to produce virus encoding EGFR exon 20 insertions. Ba/F3 (DSMZ) cells maintained in RPM11640 medium supplemented with 10% fetal bovine serum, 200 pM L-glutamine/200 µg/mL penicillin/200 µg/mL streptomycin (Life Technology) and 10 ng/mL IL-3 (R&D system), were infected by EGFR Exon20 virus and subsequently selected by puromycin (Life Technology) selection and IL-3 depletion. Ba/F3 cells expressing EGFR exon 20 insertions (named Ba/F3-EGFR-Exon20-NPG or Ba/F3-EGFR-Exon20-ASV) can proliferate in the absence of IL-3. The anti-proliferative activity of compounds were determined as follows: BaF3-EGFR-Exon20 cells (NPG or ASV) seeded in 96 well plates (2500 cells/well) were treated with test compound (dissolved in DMSO) at a series of concentrations (4-fold dilution, top concentration: 10,000 nM). The plates were incubated for 72 h in a 37° C. incubator with 5% CO2, and the number of viable cells in each well were measured indirectly by CellTiter 96® Aqueous One Solution Cell Proliferation Assay (Promega) This assay is a colorimetric method for determining the number of viable cells through measurement of their metabolic activity by detection of enzymatic conversion of tetrazolium salts into blue formazan derivatives. Reagent (20 pL) was added into each well, and the plates were returned to the incubator for 2 h. The absorbance in each well was then measured at 490 nm using an Envision plate reader (Perkin Elmer). IC50 values were calculated by determining the concentration of compound required to decrease the MTS signal by 50% comparing to the DMSO control in best-fit curves using Microsoft XLfit software or Accelrys Pipeline Pilot.

Assay [3] concerns the target T3, Her2 exon 20 YVMA insertion (A775_G776ins YVMA) (Homo sapiens, UniProt P04626, INS775YVMA).
T3 construct: expressed in transfected cells; host or cells: Ba/F3 (murine pro-B) cells, lentiviral transduction with pLVX-IRES puro
Nature of the assay: Ba/F3-Her2 Exon20 YVMA cell anti-proliferation assay (MTS). Particulars: Ba/F3-Her2 Exon20 YVMA cells, 72 h, MTS signal. An excerpt:
A compound's ability in selectively inhibiting Her2 exon 20 YVMA insertion mutations can be assessed using Ba/F3 cells, a murine pro-B cell line, which have been transduced with Her2 Exon20 YVMA insertions. An expression vector, pLVX-IRES puro (Clontech) coding for human EGFR exon 20 insertions YVMA (A775_G776ins YVMA), was transfected into HEK293 cells by the Trans-Lentiviral ORF Packaging System (Thermo Scientific), to produce virus encoding EGFR exon 20 insertions. Ba/F3 (DSMZ) cells maintained in RPM11640 medium supplemented with 10% fetal bovine serum, 200 pM L-glutamine/200 μg/mL penicillin/200 μg/mL streptomycin (Life Technology) and 10 ng/mL IL-3 (R&D system), were infected by EGFR Exon20 virus and subsequently selected by puromycin (Life Technology) selection and IL-3 depletion. Ba/F3 cells expressing Her2 Exon20 YVMA insertions (named Ba/F3-Her2 Exon20 YVMA) can proliferate in the absence of IL-3. The anti-proliferative activity of compounds was determined as follows: BaF3-Her2 Exon20 YVMA cells seeded in 96 well plates (2500 cells/well) were treated with test compound (dissolved in DMSO) at a series of concentrations (4-fold dilution, top concentration: 10,000 nM). The plates were incubated for 72 h in a 37° C. incubator with 5% CO2, and the number of viable cells in each well were measured indirectly by CellTiter 96® Aqueous One Solution Cell Proliferation Assay (Promega; this assay is a colorimetric method for determining the number of viable cells through measurement of their metabolic activity by detection of enzymatic conversion of tetrazolium salts into blue formazan derivatives). Reagent (20 pL) was added into each well, and the plates were returned to the incubator for 2 h. The absorbance in each well was then measured at 490 nm using an Envision plate reader (Perkin Elmer). IC50 values were calculated by determining the concentration of compound required to decrease the MTS signal by 50% comparing to the DMSO control in best-fit curves using Microsoft XLfit software or Accelrys Pipeline Pilot.

The IC50 is the concentration that gives 50% inhibition. A high value points to weaker potency.

T3 sequence (P04626 with tags, fused parts or gaps INS775YVMA): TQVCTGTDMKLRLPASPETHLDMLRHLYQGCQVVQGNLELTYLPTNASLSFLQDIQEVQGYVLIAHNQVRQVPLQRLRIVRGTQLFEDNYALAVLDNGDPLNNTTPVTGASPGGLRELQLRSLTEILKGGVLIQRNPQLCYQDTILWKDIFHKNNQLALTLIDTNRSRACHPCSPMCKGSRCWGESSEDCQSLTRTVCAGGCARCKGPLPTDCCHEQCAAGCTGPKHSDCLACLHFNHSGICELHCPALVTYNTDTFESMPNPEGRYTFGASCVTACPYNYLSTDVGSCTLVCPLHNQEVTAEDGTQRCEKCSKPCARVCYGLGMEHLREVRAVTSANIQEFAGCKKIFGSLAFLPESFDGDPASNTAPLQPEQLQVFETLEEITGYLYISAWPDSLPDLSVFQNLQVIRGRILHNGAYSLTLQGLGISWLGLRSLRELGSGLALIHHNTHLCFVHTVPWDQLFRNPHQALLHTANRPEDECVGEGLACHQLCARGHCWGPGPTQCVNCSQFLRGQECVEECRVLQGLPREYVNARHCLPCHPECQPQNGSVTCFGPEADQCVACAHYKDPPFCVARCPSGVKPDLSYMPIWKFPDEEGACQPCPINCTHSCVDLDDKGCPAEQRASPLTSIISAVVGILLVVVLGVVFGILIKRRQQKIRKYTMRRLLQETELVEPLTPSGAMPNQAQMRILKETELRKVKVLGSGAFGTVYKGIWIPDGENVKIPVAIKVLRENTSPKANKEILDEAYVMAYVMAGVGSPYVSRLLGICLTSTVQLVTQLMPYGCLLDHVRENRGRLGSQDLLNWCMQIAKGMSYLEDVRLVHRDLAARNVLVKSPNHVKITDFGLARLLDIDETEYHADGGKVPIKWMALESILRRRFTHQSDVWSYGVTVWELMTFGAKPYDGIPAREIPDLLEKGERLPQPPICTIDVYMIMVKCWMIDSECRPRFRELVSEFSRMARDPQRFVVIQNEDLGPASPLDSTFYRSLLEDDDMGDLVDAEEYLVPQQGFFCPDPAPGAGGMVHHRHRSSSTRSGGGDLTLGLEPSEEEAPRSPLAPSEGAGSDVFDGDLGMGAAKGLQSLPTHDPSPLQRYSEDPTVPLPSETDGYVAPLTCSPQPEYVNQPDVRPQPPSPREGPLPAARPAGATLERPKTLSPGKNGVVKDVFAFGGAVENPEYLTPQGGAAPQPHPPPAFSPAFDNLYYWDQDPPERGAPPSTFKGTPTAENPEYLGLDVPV
T1 sequence (P00533 25-1210 T790M/L858R): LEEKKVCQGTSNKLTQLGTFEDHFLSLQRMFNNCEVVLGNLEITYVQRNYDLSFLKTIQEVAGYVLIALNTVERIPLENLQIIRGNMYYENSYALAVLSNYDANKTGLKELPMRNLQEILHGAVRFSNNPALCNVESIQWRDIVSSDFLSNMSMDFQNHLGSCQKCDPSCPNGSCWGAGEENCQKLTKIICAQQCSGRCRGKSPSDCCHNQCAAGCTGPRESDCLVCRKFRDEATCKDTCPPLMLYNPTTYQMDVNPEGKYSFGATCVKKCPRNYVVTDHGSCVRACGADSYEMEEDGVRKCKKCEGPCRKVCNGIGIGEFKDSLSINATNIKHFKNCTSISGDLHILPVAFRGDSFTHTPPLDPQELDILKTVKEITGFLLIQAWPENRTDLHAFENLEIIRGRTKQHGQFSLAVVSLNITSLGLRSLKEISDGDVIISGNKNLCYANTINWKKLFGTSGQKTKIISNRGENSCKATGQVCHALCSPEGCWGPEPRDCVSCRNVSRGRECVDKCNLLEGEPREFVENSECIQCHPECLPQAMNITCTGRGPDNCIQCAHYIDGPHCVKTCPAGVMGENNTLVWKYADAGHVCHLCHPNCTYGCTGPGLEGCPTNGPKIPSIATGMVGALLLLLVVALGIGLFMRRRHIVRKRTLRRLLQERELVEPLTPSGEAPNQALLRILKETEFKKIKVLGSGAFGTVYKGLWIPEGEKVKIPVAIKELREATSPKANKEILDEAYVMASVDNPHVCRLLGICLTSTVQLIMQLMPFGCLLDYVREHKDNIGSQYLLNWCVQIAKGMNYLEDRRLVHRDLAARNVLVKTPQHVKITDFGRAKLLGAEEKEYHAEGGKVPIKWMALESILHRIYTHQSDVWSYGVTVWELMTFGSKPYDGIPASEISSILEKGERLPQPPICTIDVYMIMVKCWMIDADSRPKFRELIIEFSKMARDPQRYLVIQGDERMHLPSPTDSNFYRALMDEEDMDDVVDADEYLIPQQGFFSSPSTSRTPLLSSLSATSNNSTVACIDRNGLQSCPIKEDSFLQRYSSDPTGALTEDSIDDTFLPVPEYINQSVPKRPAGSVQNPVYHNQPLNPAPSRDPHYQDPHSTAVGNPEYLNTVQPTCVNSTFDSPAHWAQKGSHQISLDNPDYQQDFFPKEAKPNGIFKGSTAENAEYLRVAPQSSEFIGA

For `C=CC(=O)Nc1cc(Nc2nccc(-c3c4n(c5ccccc35)CCOC4)n2)c(OC)cc1N(C)CCN(C)C` [Example 1, N-(5-((4-(3,4-dihydro-1H-[1,4]oxazino[4,3-a]indol-10-yl)pyrimidin-2-yl)amino)-2-((2-(dimethylamino)ethyl)(methyl)amino)-4-methoxyphenyl)acrylamide], the “EGFR exon 21 L858R and T790M mutation IC50” value in assay [1] is given as “A (Group A compounds have an IC50 value for the indicated mutant below about 100 nM)”. Besides, the figures for the IC50 in assay [2] and in assay [3] were less than 100 nM and 100 to 500 nM, respectively.

Regarding `C=CC(=O)Nc1cc(Nc2nccc(-c3c4n(c5ccccc35)CCN(C)C4=O)n2)c(OC)cc1N(C)CCN(C)C` [Example 2, N-(2-((2-(dimethylamino)ethyl)(methyl)amino)-4-methoxy-5-((4-(2-methyl-1-oxo-1,2,3,4-tetrahydropyrazino[1,2-a]indol-10-yl)pyrimidin-2-yl)amino)phenyl)acrylamide], the “EGFR exon 21 L858R and T790M mutation IC50” value in assay [1] was “A (Group A compounds have an IC50 value for the indicated mutant below about 100 nM)”. For the same molecule, the half-inhibitory concentration (IC50) in assay [2] is 100 to 500 nM; in assay [3] it was greater than 1000 nM.

As for `C=CC(=O)Nc1cc(Nc2nccc(-c3c4n(c5ccccc35)CC(O)CC4)n2)c(OC)cc1N(C)CCN(C)C` (stereo not drawn) [Example 3, N-(2-((2-(dimethylamino)ethyl)(methyl)amino)-5-((4-(7-hydroxy-6,7,8,9-tetrahydropyrido[1,2-a]indol-10-yl)pyrimidin-2-yl)amino)-4-methoxyphenyl)acrylamide], the “EGFR exon 21 L858R and T790M mutation IC50” value in assay [1] was “A (Group A compounds have an IC50 value for the indicated mutant below about 100 nM)”. For the same molecule, the IC50 in assay [2] was less than 100 nM; in assay [3] it was 100 to 500 nM.

As to `C=CC(=O)Nc1cc(Nc2nccc(-c3c4n(c5ccccc35)CC3OC(C)(C)OC3C4)n2)c(OC)cc1N(C)CCN(C)C` (stereo not drawn) [Example 4, N-(5-((4-(cis-2,2-dimethyl-3a,4,11,11a-tetrahydro-[1,3]dioxolo[4′,5′:4,5]pyrido[1,2-a]indol-10-yl)pyrimidin-2-yl)amino)-2-((2-(dimethylamino)ethyl)(methyl)amino)-4-methoxyphenyl)acrylamide], in assay [1], the “EGFR exon 21 L858R and T790M mutation IC50” value is listed as “A (Group A compounds have an IC50 value for the indicated mutant below about 100 nM)”. Further, the IC50 in assay [2] and in assay [3] was less than 100 nM each time.

In the case of `C=CC(=O)Nc1cc(Nc2nccc(-c3c4n(c5ccccc35)CCCC4)n2)c(OC)cc1N(C)CCN(C)C` [Example 5, N-(2-((2-(dimethylamino)ethyl)(methyl)amino)-4-methoxy-5-((4-(6,7,8,9-tetrahydropyrido[1,2-a]indol-10-yl)pyrimidin-2-yl)amino)phenyl)acrylamide], the “EGFR exon 21 L858R and T790M mutation IC50” value in assay [1] is recorded as “A (Group A compounds have an IC50 value for the indicated mutant below about 100 nM)”. Further, the figures for the IC50 in assay [2] and in assay [3] were less than 100 nM and 100 to 500 nM, respectively.

Regarding `C=CC(=O)Nc1cc(Nc2nccc(-c3c4n(c5ccccc35)CC(O)C(O)C4)n2)c(OC)cc1N(C)CCN(C)C` (stereo not drawn) [Example 6, N-(5-((4-(cis-7,8-dihydroxy-6,7,8,9-tetrahydropyrido[1,2-a]indol-10-yl)pyrimidin-2-yl)amino)-2-((2-(dimethylamino)ethyl)(methyl)amino)-4-methoxyphenyl)acrylamide], in assay [1], the “EGFR exon 21 L858R and T790M mutation IC50” value was “A (Group A compounds have an IC50 value for the indicated mutant below about 100 nM)”. In addition, the half-maximal inhibitory concentration (IC50) in assay [2] was less than 100 nM; in assay [3], 100 to 500 nM.

Regarding `C=CC(=O)Nc1cc(Nc2nccc(-c3c4n(c5ccccc35)CC(OC)CC4)n2)c(OC)cc1N(C)CCN(C)C` (stereo not drawn) [Example 7, N-(2-((2-(dimethylamino)ethyl)(methyl)amino)-4-methoxy-5-((4-(7-methoxy-6,7,8,9-tetrahydropyrido[1,2-a]indol-10-yl)pyrimidin-2-yl)amino)phenyl)acrylamide], the “EGFR exon 21 L858R and T790M mutation IC50” value in assay [1] is “A (Group A compounds have an IC50 value for the indicated mutant below about 100 nM)”. The IC50 in assay [2] is less than 100 nM; in assay [3], 100 to 500 nM.

As to `C=CC(=O)Nc1cc(Nc2nccc(-n3c4c(c5ccccc53)CC(O)CC4)n2)c(OC)cc1N(C)CCN(C)C` (stereo not drawn) [Example 10, N-(2-((2-(dimethylamino)ethyl)(methyl)amino)-5-((4-(3-hydroxy-1,2,3,4-tetrahydro-9H-carbazol-9-yl)pyrimidin-2-yl)amino)-4-methoxyphenyl)acrylamide], the “EGFR exon 21 L858R and T790M mutation IC50” value in assay [1] is “A (Group A compounds have an IC50 value for the indicated mutant below about 100 nM)”. The IC50 in assay [2] and in assay [3] was less than 100 nM each time.
